Measured values: patent US20250186634A1, “METHODS OF TREATING SMALL CELL LUNG CANCER” (Evergreen Discovery, LLC., priority 2023, published 2025)

Columns and labels:
CCK2R [1] = biological target: T1, CCK2R (Rattus norvegicus, UniProt P30553); experiment: Small molecule blocking of PP-F11-FITC fluorescent signal in AR42J cells; type: cell-based; conditions: 100 nM PP-F11-FITC, antagonist at 50× the concentration of PP-F11-FITC, FIG. 1A
T1 construct: rat pancreatic AR42J cells, which are known to express CCK2R; endogenous in cells; host or cells: AR42J rat pancreatic cancer cell line
T1 sequence (P30553 1-452): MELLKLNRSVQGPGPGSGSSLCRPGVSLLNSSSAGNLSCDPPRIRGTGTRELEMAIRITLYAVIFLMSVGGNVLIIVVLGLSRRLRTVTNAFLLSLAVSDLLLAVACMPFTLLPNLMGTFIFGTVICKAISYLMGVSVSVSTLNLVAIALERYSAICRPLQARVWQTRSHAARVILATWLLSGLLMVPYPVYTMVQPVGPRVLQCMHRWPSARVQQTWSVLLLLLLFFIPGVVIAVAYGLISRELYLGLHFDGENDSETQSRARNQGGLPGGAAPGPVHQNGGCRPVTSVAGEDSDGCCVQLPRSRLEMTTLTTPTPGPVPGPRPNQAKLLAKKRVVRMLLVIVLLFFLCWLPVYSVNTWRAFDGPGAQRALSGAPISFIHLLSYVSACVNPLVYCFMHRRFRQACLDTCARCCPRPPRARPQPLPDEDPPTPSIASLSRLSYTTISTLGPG
Procedure: Small molecule antagonism of PP-F11 in AR42J and Panc1 cell lines was evaluated by measuring the intensity of a fluorescent (“FL”) signal of FL tagged PP-F11 in the presence or absence of small molecule inhibitors.
Each blocking agent was added in a 50× excess dose concentration to saturate available receptors.
FIG. 1A depicts small molecule blocking experiments performed in rat pancreatic AR42J cells, which are known to express CCK2R. 100 nM of a fluorescently labeled version of PP-F11 (PP-F11-FITC) was added to cell culture in the absence of or the presence of various small molecule CCK2 receptor antagonists at 50× the concentration of fluorescently labeled PP-F11. To determine blocking of PP-F11, the fluorescent intensity of fluorescently labeled PP-F11 was measured in each experiment.

CCK2R [2] = biological target: T1, CCK2R; experiment: Uptake of 177Lu-EVG321 by AR42J cells pre-treated with blocking agent (gamma counting); type: cell-based; conditions: 2 mM blocking agent (100× excess dose), pre-treated 1 hour, 200 fmols 177Lu-EVG321 per well, two-tailed t-test, FIG. 3A-C
Procedure: AR42J rat pancreatic cell line were used as they express the CCK2 receptor. The AR42J rat pancreatic cancer cell line was cultured in F-12K medium from ATCC with a final concentration of FBS of 20% (v/v). Medium was changed every 2-3 days and a sub-cultivation ratio of 1:3 was used to split the cells. […] 1×10^6AR42J cells were seeded per well in a 6 well plate in 2 mL of media (DMEM: F12+10% Fetal Bovine Serum (FBS)). Cells were stored at 37° C. in an incubator starting at time 0 for 24-48 hours (depending on cell adherence). On the day of experiment, 1 hour before adding the blocking agent, the medium was changed and replaced with 2 mL of fresh media, and incubated at 37° C. degrees for 1 hour. Once the 1-hour incubation was complete, 4 μL of blocking agent was added to each well to provide a final concentration of 2 mM (i.e., 100 times more concentrated than the radioactive molecule). The plate was gently shaken and incubated at 37° C. for 1 hour. […] Samples were then analyzed using a Hidex Gamma counter to measure counts from each tube (gamma peaks of ^177Lu at 113 keV and 208 keV, 5 minutes per tube counting). […] Radioactive uptake was measured as a fraction of the added radiation at time 0 and used to calculate relative binding in counts per minute (CPM). […]

| SMILES | fluorescent signal of PP-F11-FITC compared to experiment A (PP-F11-FITC only); decrease indicates blocking of PP-F11 binding (CCK2R [1]) | specific uptake of 177Lu-EVG321 (relative uptake, CPM) versus cells without blocking agent (CCK2R [2]) |
| --- | --- | --- |
| CSCC[C@H](NC(=O)[C@H](Cc1c[nH]c2ccccc12)NC(=O)CNC(=O)[C@H](Cc1ccc(O)cc1)NC(=O)[C@H](C)NC(=O)[C@@H](CCC(=O)O)NC(=O)[C@@H](CCC(=O)O)NC(=O)[C@@H](CCC(=O)O)NC(=O)[C@@H](CCC(=O)O)NC(=O)[C@@H](CCC(=O)O)NC(=O)[C@H](N)CCC(=O)O)C(=O)N[C@@H](CC(=O)O)C(=O)N[C@@H](Cc1ccccc1)C(N)=O [PP-F11] | decrease in fluorescent signal | – |
| CCCN(CCC)C(=O)C(CCC(=O)O)NC(=O)c1ccccc1 (stereo not shown) [proglumide, 4-benzamido-5-(dipropylamino)-5-oxopentanoic acid] | – | did not show as drastic and statistically significant reduction of uptake |
| CNc1cccc(NC(=O)N[C@@H]2N=C(c3ccccn3)c3ccccc3N(CC(=O)C(C)(C)C)C2=O)c1 [sograzepide, (R)-1-(1-(3,3-dimethyl-2-oxobutyl)-2-oxo-5-(pyridin-2-yl)-2,3-dihydro-1H-benzo[e][1,4]diazepin-3-yl)-3-(3-(methylamino)phenyl) urea] | decrease in fluorescent signal | significant decrease in the specific uptake |
